Results on 51 compounds are retold here after ChEMBL document CHEMBL1201862, “PubChem BioAssay data set” (2004).

Holding throughout (experiment): growth of human tumour cells (NCI), 48 h
Test [1] concerns MDA-N.
Test [2] deals with BT-549.
For test [3], the system named is T47D.
Test [4] has as its system HOP-18.
Test [5] has as its system KM-20L2.
Test [6] has as its system DLD-1.
In test [7] the test system is M19-MEL.
In test [8] the test system is SNB-78.

Structures are written as SMILES.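 Cultured in 96-well plates, cells were exposed to test compound for 48 hours across five concentrations. GI50 is the concentration that inhibits growth by half.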 Calls of active or inactive are those of the source. No stated cut-off is given here; in the data, active = GI50 up to about 1.1 µM and inactive = higher.

In the case of `CC(C)c1nccn1Cc1ccc(Cl)cc1Cl`, the GI50 in test [1] was 38.6 µM (inactive); in test [2] it was 64.1 µM (inactive).

Take `C=C(Br)CN(C)CC(=C)Br`: the GI50 in test [1], in test [2] and in test [3] was > 100 µM (inactive) throughout.

Take `O=C1[C@@H]2[C@@H](CN3CN(c4ccccc4)N=C(c4ccccc4)[C@@]23c2ccccc2)C(=O)N1c1ccccc1`: the GI50 was 5.19 µM (inactive) in test [1], 3.61 µM (inactive) in test [2] and 2.58 µM (inactive) in test [3].

`Cc1cccc(NC(=S)N/N=C2\C(=O)Nc3ccccc32)c1`: the GI50 in test [1] and in test [3] was > 100 µM (inactive) each time.

In the case of `CN(C)c1ccc(/C=C/c2ccnc3ccc4ccccc4c23)cc1`, the GI50 in test [1] is 16.3 µM (inactive); in test [2] it was 37.5 µM (inactive); in test [3], 16.7 µM (inactive).

Take `COc1ccc(CCn2ccc(C)n2)c(OC)c1`: the GI50 is > 100 µM (inactive) in test [1], > 100 µM (inactive) in test [2] and 68.9 µM (inactive) in test [3].

Take `CCCNC(=O)C(C)C1CCC2(C)C=CC(=O)C(C)=C2C1O` (stereo not drawn): the GI50 in test [4], in test [5], in test [6] and in test [7] was > 100 µM (inactive) each time.

As for `Oc1nc(CC(O)c2ccc(Cl)c(Cl)c2)cc(-c2ccccc2)n1` (stereo not drawn), the GI50 is > 100 µM (inactive) in test [4], 60 µM (inactive) in test [5], > 100 µM (inactive) in test [6] and 44.3 µM (inactive) in test [7].

With `Oc1cc(Cl)cc2cc(Br)cnc12`, the GI50 in test [1] was 2.3 µM (inactive); in test [2], 1.53 µM (inactive); in test [3], 7.28 µM (inactive).

For the compound `O=C(Nc1nc2c(=O)[nH]cnc2s1)c1ccccc1`, the GI50 in test [2] is > 100 µM (inactive).

As to `Cc1ccc(S(=O)(=O)N(c2ccccc2F)C2CCCCC2O)cc1` (stereo not drawn), the GI50 in test [1] was 19.9 µM (inactive); in test [2], 14.6 µM (inactive).

Take `O=C1OC(c2ccccc2Br)=N/C1=C/c1ccccc1`: the GI50 in test [1] was 25.4 µM (inactive); in test [3], > 100 µM (inactive).

As for `COc1cc([C@@H]2c3cc4c(cc3[C@@H](Nc3ccc(Cl)cc3C(=O)c3ccccc3Cl)[C@H]3COC(=O)[C@H]23)OCO4)cc(OC)c1OC`, the GI50 in test [1] is 0.0873 µM (active); in test [3], > 100 µM (inactive).

For the compound `COC(=O)C1(F)C(=O)NC(=O)NC1O` (stereo not drawn), the GI50 in test [1] and in test [3] was > 100 µM (inactive) throughout.

Turning to `Cc1ccc2oc(=O)c(-c3ccccc3)nc2c1`, the GI50 in test [4] was 34.2 µM (inactive); in test [6], 11.7 µM (inactive); in test [7] it was 23.1 µM (inactive).

For the compound `CC/C=C/C[C@H](O[Si](C)(C)C(C)(C)C)[C@H]1C[C@H]2O[C@H]([C@@H](O)C#C[Si](C)(C)C)C[C@H]2O1`, the GI50 in test [1] is 12.2 µM (inactive); in test [2], 19.2 µM (inactive); in test [3], 7.55 µM (inactive).

As to `CC1(C)C2CCC1(C)[C@H](O)[C@H]2Nc1cc(C(F)(F)F)cc(C(F)(F)F)c1` (stereo partly drawn), the figures for the GI50 in test [2] and in test [3] were 3.91 µM (inactive) and 2.59 µM (inactive), respectively.

For `CC(CO)(CO)N1C(=O)C2C3C=CC(C3)C2C1=O` (stereo not drawn), the GI50 in test [1] and in test [3] was > 100 µM (inactive) in each case.

Regarding `CCn1c(SCC(=O)N/N=C/c2ccccc2)nc2ccccc2c1=O`, the GI50 in test [1] was 2.54 µM (inactive); in test [2] it was 17.3 µM (inactive); in test [3], 21.7 µM (inactive).

For `COc1ccc2cc(CN3CCC(C4CCN(Cc5ccc6cc(OC)ccc6c5)CC4)CC3)ccc2c1`, the GI50 in test [1] was 2.04 µM (inactive); in test [2], > 10 µM (inactive); in test [3], 1.93 µM (inactive).

As for `O=C(NS(=O)(=O)OCC(Cl)(Cl)Cl)SCCC(F)(F)C(F)(F)C(F)(F)C(F)(F)C(F)(F)C(F)(F)F`, the GI50 in test [2] was 49 µM (inactive); in test [3], 27.9 µM (inactive).

As for `CC1=CCC2CC1C(C(=O)c1c[nH]c3ccccc13)=NC2(C)C` (stereo not drawn), the GI50 in test [1] is > 10 µM (inactive); in test [2], 40 µM (inactive); in test [3], 29.4 µM (inactive).

As to `C=C(C)OCOCCOC`, the GI50 in test [1], in test [2] and in test [3] was > 100 µM (inactive) each time.

As to `COc1cc(/N=C\N(C)C)c2ncccc2c1`, the GI50 in test [1] is 20.4 µM (inactive); in test [2] it was 37.1 µM (inactive); in test [3] it was 78 µM (inactive).

As for `C=C(Br)CN(CC(=C)Br)C(C)=O`, the GI50 in test [1] and in test [3] was > 100 µM (inactive) throughout.

For `CSc1nc2c(c(=O)n1C)N=C(c1ccc(Cl)cc1)CC(c1ccccc1)N2` (stereo not drawn), the GI50 in test [1] was 15.7 µM (inactive); in test [2], 24.9 µM (inactive).

For `CCCc1[nH]c2ccccc2c1-c1c(CCC)[nH]c2ccccc12`, the GI50 was 7.96 µM (inactive) in test [1] and 13.9 µM (inactive) in test [2].

On to `O=c1cnn(C/C=C\CO)c(=O)[nH]1`, for which the GI50 in test [1] and in test [3] was > 100 µM (inactive) each time.

Turning to `NCCCCNCCCNC(=O)c1nc(-c2nc(CCN)sc2Cl)sc1Cl`, the GI50 in test [5] was > 100 µM (inactive); in test [6] it was 83 µM (inactive); in test [8], > 100 µM (inactive); in test [7] it was > 100 µM (inactive).

As for `CSCCC(NC(=O)OCc1ccccc1)NC(=O)OCc1ccccc1`, the values for the GI50 in test [1] and in test [3] were > 100 µM (inactive) and 59.8 µM (inactive), respectively.

As to `C[C@]12CC[C@H](OC(=O)Cc3ccc(N(CCCl)CCCl)cc3)CC1=CC[C@@H]1[C@@H]2CC[C@]2(C)C(=O)CC[C@@H]12`, the GI50 in test [1] was > 100 µM (inactive); in test [2] it was > 100 µM (inactive); in test [3] it was 92.5 µM (inactive).

With `CCCc1[nH]c(SCCCCCCCCSc2nc(-c3ccc(F)cc3)c(CCC)[nH]2)nc1-c1ccc(F)cc1`, the GI50 is 6.41 µM (inactive) in test [4], 16.1 µM (inactive) in test [5], 26.2 µM (inactive) in test [8] and 29.9 µM (inactive) in test [7].

For `CN(C)c1ccc(C2SCC(=O)N2c2nc3cc4sc(N5C(=O)CSC5c5ccc(N(C)C)cc5)nc4cc3s2)cc1` (stereo not drawn), the GI50 is 45.2 µM (inactive) in test [1], 22.9 µM (inactive) in test [2] and 31.6 µM (inactive) in test [3].

Consider `COc1cc(C=O)cc(/C=N/c2ccc(S(N)(=O)=O)cc2)c1O`, for which the GI50 in test [1] is 5.6 µM (inactive); in test [2], 6.73 µM (inactive); in test [3], 14.3 µM (inactive).

As to `Oc1ccc(-c2nc3ccc4ccccc4c3c3c2CCCC3)c(O)c1`, the GI50 is 17.2 µM (inactive) in test [1], 32.7 µM (inactive) in test [2] and 7.5 µM (inactive) in test [3].

Take `O=C(/C=C/c1ccccc1)Oc1cccc(O)c1`: the GI50 in test [1] is 57.8 µM (inactive); in test [2], > 100 µM (inactive); in test [3] it was 59.6 µM (inactive).

In the case of `COc1ccc(/C=c2/s/c(=C(\C#N)c3nc4ccccc4[nH]3)n(-c3ccccc3)c2=O)cc1`, the GI50 in test [4] is 25 µM (inactive); in test [5], > 100 µM (inactive); in test [6] it was > 100 µM (inactive); in test [1] it was 30.8 µM (inactive); in test [2], 21 µM (inactive); in test [7], > 100 µM (inactive). Moreover, the GI50 in test [3] was > 100 µM (inactive).

On to `COc1ccc(NC2Oc3cc4c(cc3C(c3cc(OC)c(O)c(OC)c3)C2C)OCO4)cc1` (stereo not drawn), for which the results for the GI50 in test [1], in test [2] and in test [3] were 1.36 µM (inactive), 10.4 µM (inactive) and 9.06 µM (inactive), respectively.

`C=C1N(C)c2ccc(S(=O)(=O)c3ccc4c(c3)C(C)(C)C(=C)N4C)cc2C1(C)C`: the GI50 is 39 µM (inactive) in test [1], 26.1 µM (inactive) in test [2] and 24.2 µM (inactive) in test [3].

As for `CC(C)=C[C@@H]1C[C@H](C)[C@H]2CC[C@H](C)[C@H]3C(=O)C(O)=C(C)C(=O)[C@]123`, the GI50 in test [1] and in test [2] was > 100 µM (inactive) each time.

For `NC(=O)c1oc([N+](=O)[O-])c(-c2ccccc2)c1-c1ccccc1`, the results for the GI50 in test [2] and in test [3] were 8 µM (inactive) and 16.3 µM (inactive), respectively.

As for `C[C@]12CCC(=O)C=C1CC[C@@H]1C2CC[C@]2(C)NC(=O)C(C#N)CC12` (stereo partly drawn), the GI50 in test [5] was 53.6 µM (inactive); in test [6], > 100 µM (inactive); in test [8], > 100 µM (inactive); in test [7], > 100 µM (inactive).

With `CN(C)/C=N/CC(O)c1ccccc1` (stereo not drawn), the GI50 in test [1], in test [2] and in test [3] was > 100 µM (inactive) throughout.

Take `CCCCCCOP(=O)(OCCCCCC)C(NC(=O)OCC)(C(F)(F)F)C(F)(F)F`: the results for the GI50 in test [1], in test [2] and in test [3] were 36 µM (inactive), 22.5 µM (inactive) and 39.5 µM (inactive), respectively.

With `C=C(C)COc1ccc2c(c1)CCC1C2CCC2(C)C(=O)/C(=N/O)CC12` (stereo not drawn), the GI50 is 3.47 µM (inactive) in test [1], 6.41 µM (inactive) in test [2] and 2.2 µM (inactive) in test [3].

With `CC(C)/C(=N\[N+](C)(C)C)c1ccccc1`, the GI50 in test [1], in test [2] and in test [3] was > 100 µM (inactive) each time.

In the case of `CC(C)[Si]1(C(C)C)OCC2OC(n3ccc(=O)[nH]c3=O)C(O)(CO)C2O[Si](C(C)C)(C(C)C)O1` (stereo not drawn), the GI50 in test [2] is 16.8 µM (inactive); in test [3], 15.1 µM (inactive).

On to `O=C1NC(=O)C(CC2CCCCCCCCCCC2=O)C(=O)N1` (stereo not drawn), for which the GI50 in test [1] and in test [2] was > 100 µM (inactive) throughout.

Consider `O=C(CC/C(C/C(=N/O)c1ccc(F)cc1)=N/O)N(Cc1ccccc1)Cc1ccccc1`, for which the GI50 in test [4], in test [5], in test [6] and in test [7] was > 100 µM (inactive) each time.

In the case of `CN(C)CCCN1C(=O)N(CCCN(C)C)c2c3cc(O)ccc3nc3c([N+](=O)[O-])ccc1c23`, the GI50 in test [1] is 37.3 µM (inactive); in test [2] it was 17.6 µM (inactive); in test [3], 30.3 µM (inactive).

As for `O=S(=O)(N/C(=N\O)Nc1ccc(Cl)cc1)c1cc2ccccc2s1`, the GI50 in test [1] was 20.9 µM (inactive); in test [2] it was 17.1 µM (inactive); in test [3], 21.9 µM (inactive).
